From article PMC3954902 (Journal of medicinal chemistry, 2013)

Experiments:
[1] = tested on: HCV genotype 1b subgenomic replicon in Huh-5-2 cells; experiment: Replicon assay on Huh5-2; format: cell-based, Hepatitis C virus; settings: for Replicon assay on Huh5-2 SI (ratio of CC50 to EC50): Huh-5-2 cells; for anti-HCV activity and toxicity in words: Huh-5-2 replicon and MTS
NS5B = settings: read-out: NS5B IC50 reported by Kumar et al.; literature value; cited from earlier work
recombinant HCV NS5BCΔ21 = recombinant HCV NS5BCΔ21 (Hepatitis C virus genotype 1b, UniProt O92972); experiment: NS5B polymerase primer-dependent elongation assay; format: biochemical, HCV genotype 1b (HC-J4); settings: for fold reduction in potency against NS5B relative to derivative 8: ratio of IC50 values vs 8
Huh-9-13 cells = experiment: MTS assay and microscopic analysis on Huh 9-13 cells; format: cell-based

COc1cc2c(=O)c(C(=O)OCc3ccc(C)cc3)cn(Cc3ccc(C(F)(F)F)cc3F)c2cc1OC [Compound 2, reference compound]
selectivity of anti-HCV effect from dose-response curve ([1]; Huh-5-2, data not shown): non-selective anti-HCV agent
IC50 (NS5B): 8 nM

Cc1ccc(COC(=O)c2cn(Cc3ccc(C(F)(F)F)cc3F)c3cc(Cl)c(N)cc3c2=O)cc1 [Compound 4, 4-Methylbenzyl 6-amino-7-chloro-1-[2-fluoro-4-(trifluoromethyl)benzyl]-4-oxo-1,4-dihydro-3-quinolinecarboxylate]
Replicon assay on Huh5-2 SI (ratio of CC50 to EC50) [1]: >2.5
anti-HCV activity and toxicity in words [1]: neither active nor toxic

Nc1cc2c(=O)c(C(=O)OCc3ccc(Cl)cc3)cn(Cc3ccc(Cl)cc3)c2cc1Cl [Compound 5, 4-Chlorobenzyl 6-amino-7-chloro-1-(4-chlorobenzyl)-4-oxo-1,4-dihydro-3-quinolinecarboxylate]
anti-HCV activity and toxicity in words [1]: neither active nor toxic
inhibition of NS5B RdRp activity in preliminary screening (recombinant HCV NS5BCΔ21; 25 µM compound concentration): inactive

CN1CCN(c2cc3c(cc2N)c(=O)c(C(=O)OCc2ccc(Cl)cc2)cn3Cc2ccc(Cl)cc2)CC1 [Compound 7, 4-Chlorobenzyl 6-amino-1-(4-chlorobenzyl)-7-(4-methyl-1-piperazinyl)-4-oxo-1,4-dihydro-3-quinolinecarboxylate]
fold higher NS5B inhibition than reference compound 2 (recombinant HCV NS5BCΔ21; head to head, same assay conditions): 5 fold

Nc1cc2c(=O)c(C(=O)OCc3ccc(Cl)cc3)cn(Cc3ccc(Cl)cc3)c2cc1N1CCN(c2ccccn2)CC1 [Compound 8, 4-Chlorobenzyl 6-amino-1-(4-chlorobenzyl)-4-oxo-7-[4-(2-pyridinyl)-1-piperazinyl]-1,4-dihydro-3-quinolinecarboxylate]
cellular morphology by microscopic analysis (Huh-9-13 cells): cell aggregation

Nc1cc2c(=O)c(C(=O)OCc3ccc(Cl)cc3)cn(Cc3ccc(Cl)cc3)c2cc1N1CCN(c2nc3ccccc3s2)CC1 [Compound 9, 4-Chlorobenzyl 6-amino-7-[4-(1,3-benzothiazol-2-yl)-1-piperazinyl]-1-(4-chlorobenzyl)-4-oxo-1,4-dihydro-3-quinolinecarboxylate]
Replicon assay on Huh5-2 SI (ratio of CC50 to EC50) [1]: >17

Nc1cc2c(=O)c(C(=O)OCc3ccc(Cl)cc3)cn(Cc3ccc(Cl)cc3)c2cc1N1CCN(c2cccc(C(F)(F)F)c2)CC1 [Compound 10, 4-Chlorobenzyl 6-amino-1-(4-chlorobenzyl)-4-oxo-7-{4-[3-(trifluoromethyl)phenyl]-1-piperazinyl}-1,4-dihydro-3-quinolinecarboxylate]
Replicon assay on Huh5-2 SI (ratio of CC50 to EC50) [1]: >6

CCOC(=O)c1cn(Cc2ccc(Cl)cc2)c2cc(N3CCN(c4ccccn4)CC3)c(N)cc2c1=O [Compound 27, Ethyl 6-amino-1-(4-chlorobenzyl)-4-oxo-7-[4-(2-pyridinyl)-1-piperazinyl]-1,4-dihydro-3-quinolinecarboxylate]
fold reduction in potency against NS5B relative to derivative 8 (recombinant HCV NS5BCΔ21): ~ 45 fold

Nc1cc2c(=O)c(C(=O)O)cn(Cc3ccc(Cl)cc3)c2cc1N1CCN(c2ccccn2)CC1 [Compound 28, 6-amino-1-(4-chlorobenzyl)-4-oxo-7-[4-(2-pyridinyl)-1-piperazinyl]-1,4-dihydro-3-quinolinecarboxylic acid]
Replicon assay on Huh5-2 SI (ratio of CC50 to EC50) [1]: >28
fold reduction in potency against NS5B relative to derivative 8 (recombinant HCV NS5BCΔ21): 345 fold
